Source: the supplement of paper PMC6045584
± gives the standard deviation of the averaged measurements.

What was measured:
[1] = compound: COc1cc2nccc(Oc3ccc(NC(=O)C4(C(=O)Nc5ccc(F)cc5)CC4)cc3)c2cc1OC [CABOZANTINIB]; assay: surviving fraction relative to DMSO-only wells; higher = less growth inhibition; details: exposure time: 5 days
Method in brief: (§1)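 Tumour cell lines were seeded in log phase at 250–500 cells per well into 384-well plates. Starting 24 hours later, inhibitors were present continuously for five days at 0.5, 1, 5, 10, 50, 100, 500 and 1000 nM. Surviving fraction, from CellTiter-Glo luminescence, is normalised to the median of DMSO-only wells. Three screens per line were required, with replicate Pearson r >0.7 and median Z' >0.3 for a line to be kept.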

[2] = compound: C[C@H](CN(C)C)Oc1nc(Nc2cc3cccc(Cl)c3cn2)cnc1C#N; assay: as above; details: exposure time: 5 days
Method in brief: as §1

Row | Test System | surviving fraction ([1]; 0.5 nM) | surviving fraction ([1]; 1 nM) | surviving fraction ([1]; 5 nM) | surviving fraction ([1]; 10 nM) | surviving fraction ([1]; 50 nM) | surviving fraction ([1]; 100 nM) | surviving fraction ([1]; 500 nM) | surviving fraction ([1]; 1000 nM) | surviving fraction ([2]; 0.5 nM) | surviving fraction ([2]; 1 nM) | surviving fraction ([2]; 5 nM) | surviving fraction ([2]; 10 nM) | surviving fraction ([2]; 50 nM) | surviving fraction ([2]; 100 nM) | surviving fraction ([2]; 500 nM) | surviving fraction ([2]; 1000 nM)
1 | U2OS BONE | 1.015 ± 0.0081 | 1.02 ± 0.028 | 1.03 ± 0.022 | 1.003 ± 0.0091 | 1.03 ± 0.046 | 1.02 ± 0.015 | 0.932 ± 0.018 | 0.914 ± 0.02 | 1.04 ± 0.053 | 1 ± 0.039 | 1.02 ± 0.027 | 0.993 ± 0.081 | 1.05 ± 0.043 | 1.03 ± 0.025 | 0.277 ± 0.028 | 0.159 ± 0.013
2 | SKBR3 BREAST | 1.02 ± 0.1 | 0.954 ± 0.11 | 1.07 ± 0.083 | 0.973 ± 0.011 | 1.12 ± 0.11 | 1.06 ± 0.098 | 0.987 ± 0.077 | 0.973 ± 0.025 | 1.04 ± 0.066 | 0.967 ± 0.066 | 0.881 ± 0.058 | 0.843 ± 0.063 | 1.06 ± 0.061 | 0.91 ± 0.18 | 0.667 ± 0.08 | 0.344 ± 0.019
3 | SAOS2 BONE | 1.13 ± 0.038 | 1.12 ± 0.069 | 1.18 ± 0.12 | 1.14 ± 0.015 | 1.17 ± 0.14 | 1.14 ± 0.14 | 0.993 ± 0.073 | 1.01 ± 0.14 | 1.18 ± 0.055 | 1.19 ± 0.047 | 1.17 ± 0.058 | 1.137 ± 0.01 | 1.39 ± 0.1 | 1.32 ± 0.068 | 1.08 ± 0.12 | 0.944 ± 0.042
4 | 22RV1 PROSTATE | 0.946 ± 0.039 | 1.03 ± 0.018 | 0.992 ± 0.056 | 1 ± 0.13 | 1.03 ± 0.06 | 1.08 ± 0.15 | 1.07 ± 0.095 | 0.909 ± 0.18 | 1.15 ± 0.15 | 1.02 ± 0.071 | 1.01 ± 0.074 | 1.06 ± 0.15 | 0.999 ± 0.046 | 0.887 ± 0.14 | 1.03 ± 0.037 | 0.838 ± 0.12
5 | CAL51 BREAST | 1.01 ± 0.08 | 0.953 ± 0.025 | 1.04 ± 0.041 | 0.954 ± 0.062 | 1.06 ± 0.056 | 1.07 ± 0.022 | 0.944 ± 0.091 | 0.89 ± 0.015 | 0.939 ± 0.051 | 0.961 ± 0.065 | 1.03 ± 0.025 | 0.922 ± 0.047 | 0.982 ± 0.062 | 0.855 ± 0.053 | 0.272 ± 0.049 | 0.123 ± 0.037
6 | OSHN BONE | 1.033 ± 0.005 | 1.024 ± 0.0035 | 1.03 ± 0.011 | 1.02 ± 0.0032 | 1.006 ± 0.0085 | 0.958 ± 0.02 | 0.928 ± 0.015 | 0.908 ± 0.027 | 1.06 ± 0.015 | 1.08 ± 0.025 | 1.07 ± 0.015 | 1.068 ± 0.0038 | 1.13 ± 0.029 | 1.1 ± 0.019 | 0.709 ± 0.1 | 0.11 ± 0.019
7 | A549 LUNG | 1.03 ± 0.016 | 0.976 ± 0.028 | 0.977 ± 0.022 | 0.98 ± 0.012 | 1.01 ± 0.02 | 1.01 ± 0.03 | 0.994 ± 0.021 | 0.97 ± 0.029 | 1.04 ± 0.03 | 1.02 ± 0.02 | 1.02 ± 0.024 | 0.994 ± 0.018 | 1.09 ± 0.039 | 1.06 ± 0.039 | 0.967 ± 0.02 | 0.601 ± 0.027
8 | SUM149 BREAST | 1.03 ± 0.054 | 0.979 ± 0.19 | 0.912 ± 0.061 | 0.997 ± 0.021 | 0.987 ± 0.12 | 0.96 ± 0.084 | 0.91 ± 0.15 | 0.924 ± 0.091 | 1.04 ± 0.091 | 1.02 ± 0.083 | 0.988 ± 0.086 | 1.07 ± 0.017 | 0.903 ± 0.07 | 0.836 ± 0.024 | 0.192 ± 0.0025 | 0.0843 ± 0.011
9 | SUM44 BREAST | 1.21 ± 0.32 | 1.18 ± 0.3 | 1.24 ± 0.24 | 1.21 ± 0.23 | 1.36 ± 0.4 | 1.3 ± 0.35 | 1.2 ± 0.33 | 1.27 ± 0.39 | 1.14 ± 0.37 | 1.16 ± 0.3 | 1.24 ± 0.33 | 1.29 ± 0.47 | 1.23 ± 0.4 | 0.918 ± 0.25 | 0.284 ± 0.056 | 0.268 ± 0.066
10 | BT549 BREAST | 1.05 ± 0.047 | 1.02 ± 0.024 | 1.07 ± 0.034 | 1.02 ± 0.2 | 1.22 ± 0.017 | 1.13 ± 0.16 | 1.12 ± 0.18 | 1.16 ± 0.14 | 1.12 ± 0.055 | 1.14 ± 0.12 | 1.05 ± 0.1 | 1.1 ± 0.044 | 1.1 ± 0.076 | 0.896 ± 0.095 | 0.141 ± 0.024 | 0.0517 ± 0.011
11 | YAMATO SYNOVIAL | 1.19 ± 0.048 | 1.16 ± 0.076 | 1.11 ± 0.04 | 1.01 ± 0.028 | 0.826 ± 0.044 | 0.678 ± 0.018 | 0.374 ± 0.0056 | 0.373 ± 0.02 | 1.12 ± 0.038 | 1.24 ± 0.086 | 1.17 ± 0.05 | 1.2 ± 0.13 | 1.18 ± 0.067 | 1.18 ± 0.037 | 0.806 ± 0.052 | 0.622 ± 0.074
12 | VP229 BREAST | 1.08 ± 0.1 | 1.04 ± 0.14 | 1.04 ± 0.15 | 0.952 ± 0.18 | 1.15 ± 0.2 | 0.998 ± 0.12 | 1.09 ± 0.088 | 0.966 ± 0.061 | 0.984 ± 0.1 | 1.02 ± 0.056 | 1.1 ± 0.12 | 1.04 ± 0.14 | 1.05 ± 0.096 | 1.09 ± 0.042 | 1.04 ± 0.086 | 0.86 ± 0.028
13 | SJSA1 BONE | 1.47 ± 0.13 | 1.63 ± 0.045 | 1.56 ± 0.07 | 1.75 ± 0.071 | 1.627 ± 0.0032 | 1.74 ± 0.13 | 1.65 ± 0.059 | 1.78 ± 0.089 | 1.49 ± 0.044 | 1.65 ± 0.083 | 1.6 ± 0.17 | 1.57 ± 0.02 | 1.63 ± 0.14 | 1.74 ± 0.039 | 1.63 ± 0.2 | 1.69 ± 0.082
14 | SCC90 HEADNECK | 0.858 ± 0.053 | 0.819 ± 0.089 | 0.9093 ± 0.0042 | 0.997 ± 0.086 | 1.09 ± 0.17 | 1.05 ± 0.15 | 0.852 ± 0.081 | 0.874 ± 0.087 | 1.05 ± 0.08 | 1.02 ± 0.082 | 1.02 ± 0.09 | 0.936 ± 0.1 | 0.991 ± 0.038 | 0.911 ± 0.034 | 0.189 ± 0.03 | 0.215 ± 0.021
15 | KPD BONE | 0.914 ± 0.031 | 0.985 ± 0.02 | 1.1 ± 0.045 | 1.04 ± 0.028 | 1.05 ± 0.036 | 1.03 ± 0.045 | 0.997 ± 0.068 | 0.956 ± 0.047 | 1.04 ± 0.068 | 0.982 ± 0.083 | 1.03 ± 0.1 | 1.05 ± 0.11 | 1.06 ± 0.054 | 0.979 ± 0.025 | 0.4 ± 0.025 | 0.224 ± 0.028
16 | SG32 HEADNECK | 1.06 ± 0.18 | 1 ± 0.17 | 0.922 ± 0.1 | 1.04 ± 0.29 | 0.901 ± 0.1 | 0.961 ± 0.13 | 0.968 ± 0.1 | 0.711 ± 0.05 | 1.17 ± 0.16 | 1.16 ± 0.24 | 1.06 ± 0.078 | 1.03 ± 0.1 | 1.05 ± 0.081 | 1.16 ± 0.23 | 0.748 ± 0.066 | 0.653 ± 0.11
17 | MDAMB157 BREAST | 0.933 ± 0.056 | 0.953 ± 0.049 | 1 ± 0.025 | 0.959 ± 0.031 | 0.994 ± 0.048 | 0.891 ± 0.054 | 0.798 ± 0.072 | 0.733 ± 0.03 | 0.946 ± 0.057 | 0.982 ± 0.033 | 1.01 ± 0.021 | 0.947 ± 0.048 | 1.03 ± 0.051 | 0.902 ± 0.11 | 0.239 ± 0.015 | 0.136 ± 0.029
18 | HCC1395 BREAST | 1.12 ± 0.073 | 1.02 ± 0.06 | 1.14 ± 0.045 | 1.23 ± 0.034 | 1.38 ± 0.14 | 1.33 ± 0.053 | 1.13 ± 0.085 | 1.2 ± 0.086 | 0.957 ± 0.076 | 1.14 ± 0.13 | 1.161 ± 0.011 | 1.15 ± 0.14 | 1.27 ± 0.16 | 1.22 ± 0.029 | 0.729 ± 0.1 | 0.671 ± 0.15
19 | SIHA CERVIX | 0.857 ± 0.073 | 0.835 ± 0.051 | 0.979 ± 0.02 | 0.918 ± 0.017 | 0.988 ± 0.024 | 0.929 ± 0.038 | 0.737 ± 0.032 | 0.68 ± 0.033 | 0.955 ± 0.041 | 0.981 ± 0.033 | 1.06 ± 0.037 | 1.05 ± 0.061 | 1.16 ± 0.014 | 1.11 ± 0.1 | 0.95 ± 0.092 | 1 ± 0.033
